Where two headings read alike, the source gives them in different places.
Legend:
PBMC = assay: cytotoxicity (CC95) in PBMC, same anti-HIV study
physchem = conditions: buffer, pH 7.4
HIVNL4-3 = assay: anti-HIV data in PBMC for the clinical isolate HIVNL4-3; type: cell-based
in vitro = conditions: human, pooled liver microsomes

For `O=C(O)/C(O)=C/C(=O)c1cc(Cc2ccccc2)cn(Cc2ccccc2)c1=O` [Compound 8], the CC95 (PBMC) was greater than 200000 nM, the half-life (physchem) was greater than 41 h and the EC95 (HIVNL4-3) was 610 nM. The half-life (in vitro) was greater than 6 h.
Compound `Cc1cn([C@H]2C[C@H](N=[N+]=[N-])[C@@H](CO)O2)c(=O)[nH]c1=O` [AZT, Zidovudine, reference compound] has a CC95 (PBMC) greater than 1000 nM and an EC95 (HIVNL4-3; AZT in the same study) of 9.42 nM.
